Key:
[1] = tested on: A. baumannil ATCC1968; experiment: Broth microdilution MIC, A. baumannii; type: cell-based, Acinetobacter baumannii; settings: positive control, 37 °C, 24 h, OD600
Experimental: (§1) Disk diffusion and broth microdilution tests were selected as the standard method for screening the antimicrobial activity of SC17-2 [58]. The experiments were conducted utilising the disk diffusion test, whereby the following strains were examined: Acinetobacter baumannii (ATCC 19606), Candida auris (ATCC 10231), Pseudomonas aeruginosa (ATCC 27853) and Staphylococcus aureus (ATCC 6538). The concentration of bacterial suspension was then adjusted to 1 × 10^5 CFU/mL with saline, after which it was set aside. Separate plates containing bacterial agar were prepared: MH agar was utilised for the isolation of bacterial samples, while Sartorius agar was employed for the isolation of fungal samples. The suspensions containing the aforementioned microorganisms were then spread on the designated plates at a rate of 1:1000. A sterile filter paper was used to dispense 1 mL of SC17-2 (10 mg/mL), with equal amounts of PBS and Vancomycin/Colistin serving as controls. The plates were then subjected to the appropriate temperature (24 h at 37 °C) and subsequently observed under a camera to ascertain the results. […] At the conclusion of this period, the absorbance was measured using a Microplate Reader (Synergy H1, BioTek, USA) with a wavelength of 600 nm. […]

[2] = tested on: Escherichia coli ATCC2771; experiment: Broth microdilution MIC, E. coli; type: cell-based; parameters: unit not given beside the values; settings: positive control, 37 °C, 24 h, OD600
Experimental: as §1

[3] = tested on: S. aureus ATCC6538; experiment: Broth microdilution MIC, S. aureus; type: cell-based, Staphylococcus aureus; parameters: unit not given beside the values; settings: positive control, 37 °C, 24 h, OD600
Experimental: as §1

[4] = tested on: TGF-β; experiment: Western blot TGF-β in HaCaT; type: cell-based, Human; settings: VEGF, n = 3
Experimental: (§2) HaCaT was inoculated in 12-well plates (2 × 10^5 cells/well) and cultured for 24 h. Afterwards, HaCaT cells were treated with equal amounts of VEGF, SC17-2, and PBS for 16 h. Cells were washed with PBS, after which the samples were collected and added to 1 mL of RIPA lysate containing protease inhibitors and phosphatase inhibitors and placed on ice for 30 min. Allowed to be after sufficient lysis, the supernatant was centrifuged and collected to determine the protein concentration using a nanodrop, followed by the addition of SDS sampling buffer and heating at 95 °C for 10 min. Samples were loaded and run on a gel block based on the determined sample concentration, and then electrotransferred onto a 0.45 μm PVDF membrane. […] After washing three times with TBST, proteins were visualised and scanned by enhanced chemiluminescence using the ChemiDoc XRS imaging system (Bio-Rad, Hercules, CA, USA).

[5] = tested on: (p-Smad2/3)/(Smad2/3); experiment: Western blot p-Smad2/3 / Smad2/3 in HaCaT; type: cell-based, Human; settings: VEGF, n = 3
Experimental: as §2

[6] = tested on: p-ERK/ERK; experiment: Western blot p-ERK/ERK in HaCaT; type: cell-based, Human; settings: VEGF, n = 3
Experimental: as §2

[7] = tested on: BALB/c mice; experiment: Mouse full-thickness skin wound healing; type: in vivo; settings: day 13, VEGF 20 ng/mL, 20 μL daily on wound, relative to day 1, mean ± SEM, n = 7
Experimental: Mice were anaesthetised with sodium pentobarbital 2 % by intraperitoneal injection (0.1 mL/20 g mouse body weight), and after anaesthesia, hair was removed from the back using depilatory cream and power scissors, and circular full-thickness skin wounds of the same diameter were marked and created on the back of each mouse using circular stamps and red sealant. The mouse wounds were then covered and infiltrated daily with 20 μL of different concentrations of SC17-2 or 20 ng/mL VEGF, and an equal volume of saline was used in the control group. The mice were anaesthetised by isoflurane nebulisation (concentration 2 %) every two days and then placed under an optical camera to photograph the effect of the wound area.
Sodium pentobarbital (2 %) was utilised for the anaesthetisation of mice by intraperitoneal injection (0.1 mL/20 g of mouse body weight). Subsequent to the induction of anaesthesia, the dorsal hair was removed using depilatory creams and electric scissors. Thereafter, circular full skin wounds of the same diameter were marked and created on the back of each mouse using circular stamps and red stencils. Mouse wounds were then covered and infiltrated daily with 20 μL of different concentrations of SC17-2 or 20 ng/mL of VEGF, and an equal volume of saline was used in the control group. Mice were anaesthetised every two days using isoflurane nebulisation followed by anaesthesia (concentration 2 %), after which they were placed under an optical camera to photograph the effect of wound area. After 13 days of treatment, mice were anaesthetised using isoflurane nebulisation followed by injection of an overdose of sodium pentobarbital to euthanise the mice (200 mg/kg). The wounds and their surrounding tissues were then excised for histopathological evaluation (Masson and H&E staining) and analysed by Enface immunofluorescence staining.

With `CN[C@H](CC(C)C)C(=O)N[C@H]1C(=O)N[C@@H](CC(N)=O)C(=O)N[C@H]2C(=O)N[C@H]3C(=O)N[C@H](C(=O)N[C@H](C(=O)O)c4cc(O)cc(O)c4-c4cc3ccc4O)[C@H](O)c3ccc(c(Cl)c3)Oc3cc2cc(c3O[C@@H]2O[C@H](CO)[C@@H](O)[C@H](O)[C@H]2O[C@H]2C[C@](C)(N)[C@H](O)[C@H](C)O2)Oc2ccc(cc2Cl)[C@H]1O` [Vancomycin] the MIC [1] was 0.78.
Colistin gave an MIC [2] of 0.78 and an MIC [3] of 0.78.
In the case of VEGF, the “expression of TGF-β” value [4] is reported as “significantly increase the expression of TGF-β”, the Smad2/3 phosphorylation [5] is reported as “significantly increased Smad2/3 phosphorylation” and the ERK phosphorylation [6] is reported as “significantly increased ERK phosphorylation”. The wound area [7] was 7.04 ± 1.43%.

From paper PMC12957798, “Adaptation of plateau frog peptide: From antimicrobial to angiogenic and proliferative functions” (Journal of Advanced Research, 2025)
